{"source": "patent US5714361A", "about": "“Phosphatase/phosphodiesterase enzyme inhibitors and methods” (priority 1994, dated 1998)", "key": {"[1]": {"molecular_target": "human prostatic acid phosphatase (PAP) (Homo sapiens, UniProt P15309)", "sequence (P15309 33-386)": "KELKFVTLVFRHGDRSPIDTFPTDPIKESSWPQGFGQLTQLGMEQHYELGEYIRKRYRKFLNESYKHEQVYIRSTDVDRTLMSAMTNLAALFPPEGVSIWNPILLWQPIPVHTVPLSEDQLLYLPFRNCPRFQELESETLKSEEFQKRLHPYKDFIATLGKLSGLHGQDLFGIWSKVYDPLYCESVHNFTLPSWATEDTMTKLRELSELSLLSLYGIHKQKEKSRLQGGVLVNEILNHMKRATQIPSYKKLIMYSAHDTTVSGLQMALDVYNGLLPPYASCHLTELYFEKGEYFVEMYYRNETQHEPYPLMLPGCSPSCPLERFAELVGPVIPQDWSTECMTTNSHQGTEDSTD", "test": "Time-dependent inactivation of prostatic acid phosphatase (residual activity with PNPP)", "type": "biochemical", "conditions": "for time-dependent inactivation of PAP: incubation with PAP (2 μg/mL), 100 mM sodium acetate buffer pH 5.0, 25° C.; for protection of PAP against inactivation by FMPP: competitive inhibitors of PAP added", "description": "Reactions were performed by incubating 1 or 9 with PAP (2 μg/mL) in 100 mM sodium acetate buffer pH 5.0 at 25° C. Residual PAP activity was determined by removing 20 μL aliquots and adding them to a 1 mL solution of 3.0 mM p-nitrophenyl phosphate (PNPP) in 100 mM sodium acetate buffer pH 5.0. After 5 minutes in PNPP, the reactions were quenched with 100 μL of 1.25N NaOH. p-Nitrophenoxide concentration was quantitated from the absorbance at 405 nm, using an extinction coefficient of 18,000 M-1 cm-1. (A) Residual PAP activity after incubation with varying concentrations of 1; 5.0 mM (filled circles), 500 μM (open squares), 125 μM (open triangles), 70 μM (filled diamonds), and 50 μM (open circles). (B) Residual PAP activity after treatment with 6.6 mM FMPP (open triangles), or 23 mM of the phosphonate (15 X Ki) (closed circles).\nIn this experimental, human prostatic acid phosphatase (PAP) was used as a model enzyme. […] This phosphatase is an important diagnostic marker for prostate cancer, and there is evidence that it may be involved in the regulation of androgen receptor activity in prostate cells."}, "YOP 51": {"molecular_target": "YOP 51 (Yersinia enterocolitica, UniProt P15273)", "sequence (P15273 whole entry)": "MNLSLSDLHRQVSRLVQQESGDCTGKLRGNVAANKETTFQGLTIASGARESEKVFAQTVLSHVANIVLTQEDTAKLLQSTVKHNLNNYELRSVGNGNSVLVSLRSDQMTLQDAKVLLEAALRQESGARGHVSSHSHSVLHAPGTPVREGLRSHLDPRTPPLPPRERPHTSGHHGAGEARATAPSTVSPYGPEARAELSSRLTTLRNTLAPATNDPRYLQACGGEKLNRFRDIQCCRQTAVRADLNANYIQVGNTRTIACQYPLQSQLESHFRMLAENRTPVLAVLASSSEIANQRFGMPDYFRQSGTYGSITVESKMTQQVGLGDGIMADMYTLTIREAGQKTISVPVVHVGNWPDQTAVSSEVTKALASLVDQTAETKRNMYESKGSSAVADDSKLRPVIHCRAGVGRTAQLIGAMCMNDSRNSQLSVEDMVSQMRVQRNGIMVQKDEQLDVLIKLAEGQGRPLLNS", "test": "Time-dependent inactivation testing with YOP 51", "type": "biochemical", "conditions": "incubated in a fashion similar to FIG. 1"}}, "data": [{"smiles": "O=P(O)(O)Oc1ccc(CF)cc1", "note": "[FMPP, 4-(fluoromethyl)phenyl phosphate]", "values": [{"measurement": "KI (inactivation)", "setting": "[1]; read-out: Ki (saturation kinetics of the inactivation process), purified PAP", "result": 150, "unit": "µM"}]}, {"smiles": "C=C(Br)OP(=O)(OCC)OCC", "note": "[XVI, Diethyl 1-Bromovinyl Phosphate]", "values": [{"measurement": "inactivation of YOP 51", "setting": "YOP 51", "result": "succesful inactivation of the enzyme"}]}, {"smiles": "O=P(O)(O)Oc1ccc(CBr)cc1", "note": "[bromo analogue of FMPP]", "values": [{"measurement": "time-dependent inactivation of PAP", "setting": "[1]", "result": "proved to inactivate the PAP enzyme"}]}, {"smiles": "O=P(O)(O)Oc1ccc(CCl)cc1", "note": "[chloro analogue of FMPP]", "values": [{"measurement": "time-dependent inactivation of PAP", "setting": "[1]", "result": "proved to inactivate the PAP enzyme"}]}, {"smiles": "O=P(O)(O)O", "note": "[inorganic phosphate, reference compound]", "values": [{"measurement": "protection of PAP against inactivation by FMPP", "setting": "[1]", "result": "protect against inactivation"}]}, {"smiles": "O=[N+]([O-])c1cc(CCl)ccc1OP(=O)(O)O", "note": "[ortho-nitro chloro analogue of FMPP]", "values": [{"measurement": "potency of PAP inactivation relative to FMPP or its analogues", "setting": "[1]", "result": "substantially greater potency"}, {"measurement": "time-dependent inactivation of PAP", "setting": "[1]", "result": "succesfully inactivated the PAP enzyme"}]}, {"smiles": "O=C(O)C(O)C(O)C(=O)O", "note": "(centres unmarked) [tartaric acid, reference compound]", "values": [{"measurement": "protection of PAP against inactivation by FMPP", "setting": "[1]", "result": "protect against inactivation"}]}]}
